Patent US4442124A, “Valproic acid ester with antiepileptic and anticonvulsant activity and pharmaceutical compositions therefrom” (priority 1979, dated 1984)

Assays:
Solubility = format: physicochemical
[1] = Acute toxicity in Swiss albino mice (Lichtfield and Wilcoxon); settings: in vivo, mouse, mortality within 8 days, read-out: DL50 and range
Description: (§1) The acute toxicity of PEV has been investigated on Swiss albino mice of about 20 grams average weight and in Wister rats of 150±10 grams average weight by administration both through the oral route and by the endoperitoneal route.
(§2) All the animals fasted beginning 12 hours before the experiment. For the experiment, there are used 10 animals that is 5 males and 5 females for each dosage level of treatment. The values of […] are expressed in mg/kg and are calculated on the basis of the mortality which has been determined within 8 days after the administration in accordance with the method of Lichtfield and Wilcoxon.

[2] = Pharmacokinetics: plasma levels of valproic acid in Sprague-Dawley rats; format: in vivo; settings: rat
Description: The test tubes are then removed from the ice and are stirred for a period of ten minutes. Centrifugation is carried out for the purpose of separating the phases and the organic phase in n-hexane is directly injected into the gas-chromatographic apparatus.
The study of plasma levels is carried out on Sprague-Dawley albino rats of an average body weight of 215 grams (200-230). Prior to the experiment, the rats fasted for a period of twelve hours. The acid is administered both orally and intravenously, but the ester alone is administered orally. The administrations are carried out with equimolar doses, that is in the dose of 1.39 millimole/kg which corresponds to a dose of 230 mg/kg in the case of the acid administered as the sodium salt and a dose of 360 mg/kg in the case of PEV. Both the acid as well as the ester are dissolved in ethyleneglycol:ethyl alcohol in the proportion of 65-35 (V/V). The concentration of the solution is calculated in a manner to administer 2 cc/kg. After the intervals of time shown in Table 2 in minutes or in hours, the rats in groups of six, are killed by decapitation, the blood is collected and centrifuged for the purpose of obtaining the plasma which is extracted and analyzed as previously described.
On the basis of the results, it is concluded that PEV is absorbed more rapidly, but even more significant, more uniformly compared with valproic acid. An index of the dispersion of the data has been calculated by determining the standard variation in percent with respect to the average value for each group under examination.

[3] = Acute toxicity in Wister rats (Lichtfield and Wilcoxon); settings: in vivo, rat, mortality within 8 days, read-out: DL50 and range
Description: as §1, §2

Wister rats = settings: rat, oral, literature value; cited from earlier work

CCCC(CCC)C(=O)OCOC(=O)C(C)(C)C [PEV, pivaloyloxymethyl 2-propyl-pentanoate]
Solubility in alcohols, ethers, ketones (Solubility; alcohols, ethers, ketones): soluble in alcohols, ethers, ketones
Solubility in water (Solubility; water): insoluble in water
LD50 at 192 h ([1]; ip, endoperitoneal): 510 mg/kg
LD50 at 192 h ([1]; oral): 1210 mg/kg
Absolute biodisponibility ([2]; in vivo): 72.4%
Average index of dispersion of plasma levels (standard variation in percent of average) ([2]; in vivo, po): 15.2
Difference in biodisponibility in favor of the ester ([2]; in vivo, po): 45.5%
Presence of PEV (intact ester) in the plasma ([2]; orally, 1.39 mmoles/kg): none of the rats treated with the ester have exhibited the presence of PEV in the plasma
LD50 at 192 h ([3]; ip, endoperitoneal): 608 mg/kg
LD50 at 192 h ([3]; oral): 1440 mg/kg

CCCC(CCC)C(=O)[O-].[Na+] [sodium valproate, reference compound]
bioavailability ([2]; in vivo, 1390 umol/kg, oral, from AUC versus i.v., read-out: Absolute biodisponibility): 49.9%

CCCC(CCC)C(=O)O [valproic acid, 2-propyl-pentanoic acid]
Average index of dispersion of plasma levels (standard variation in percent of average) ([2]; in vivo, iv): 18.3
Average index of dispersion of plasma levels (standard variation in percent of average) ([2]; in vivo, po): 60.5
DL50 (Merck Index, 9th Edition) (Wister rats): 670 mg/kg
